# Source: PubChem BioAssay AID2060888 (Molecular Pharmacology Branch, DTP, NCI, 2025)
# System: 695427-040-R-J1-PDC complex spheroid viability
# Experiment: Anticancer human tumor 695427-040-R-J1-PDC patient-derived colon adenocarcinoma cell line growth inhibition [RAS]
# Conditions: for IC50: curve of first compound; for viability, T/C: stronger effect = lower value
# In short: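 Multi-cell-type spheroids: tumor cells plus HUVEC endothelial cells and mesenchymal stem cells. RAS-pathway inhibitors were combined with targeted agents, each dosed in half-log steps down from clinical Cmax, or from 10 microM when Cmax was unknown.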
# [1] = second compound 0.000949 µM, first compound 0.00316 µM
# [2] = second compound 0.000949 µM, first compound 0.01 µM
# [3] = second compound 0.000949 µM, first compound 0.0316 µM
# [4] = second compound 0.000949 µM, first compound 0.1 µM
# [5] = second compound 0.000949 µM, first compound 0.316 µM
# [6] = second compound 0.000949 µM, first compound 1 µM
# [7] = second compound 0.003 µM, first compound 0.00316 µM
# [8] = second compound 0.003 µM, first compound 0.01 µM
# [9] = second compound 0.003 µM, first compound 0.0316 µM
# [10] = second compound 0.003 µM, first compound 0.1 µM
# [11] = second compound 0.003 µM, first compound 0.316 µM
# [12] = second compound 0.003 µM, first compound 1 µM
# [13] = second compound 0.00949 µM, first compound 0.00316 µM
# [14] = second compound 0.00949 µM, first compound 0.01 µM
# [15] = second compound 0.00949 µM, first compound 0.0316 µM
# [16] = second compound 0.00949 µM, first compound 0.1 µM
# [17] = second compound 0.00949 µM, first compound 0.316 µM
# [18] = second compound 0.00949 µM, first compound 1 µM
# [19] = second compound 0.03 µM, first compound 0.00316 µM
# [20] = second compound 0.03 µM, first compound 0.01 µM
# [21] = second compound 0.03 µM, first compound 0.0316 µM
# [22] = second compound 0.03 µM, first compound 0.1 µM
# [23] = second compound 0.03 µM, first compound 0.316 µM
# [24] = second compound 0.03 µM, first compound 1 µM
# [25] = second compound 0.0949 µM, first compound 0.00316 µM
# [26] = second compound 0.0949 µM, first compound 0.01 µM
# [27] = second compound 0.0949 µM, first compound 0.0316 µM
# [28] = second compound 0.0949 µM, first compound 0.1 µM
# [29] = second compound 0.0949 µM, first compound 0.316 µM
# [30] = second compound 0.0949 µM, first compound 1 µM
# [31] = second compound 0.3 µM, first compound 0.00316 µM
# [32] = second compound 0.3 µM, first compound 0.01 µM
# [33] = second compound 0.3 µM, first compound 0.0316 µM
# [34] = second compound 0.3 µM, first compound 0.1 µM
# [35] = second compound 0.3 µM, first compound 0.316 µM
# [36] = second compound 0.3 µM, first compound 1 µM
# 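Note: viability read after seven days of drug exposure.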
# 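Throughout, for viability, T/C: 100% = DMSO vehicle control viability.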
smiles,measurement,setting,value
C=CC(=O)N1CCN(c2nc(OCC3CCCN3C)nc3c(F)c(-c4nc(N)cc(C)c4C(F)(F)F)c(Cl)cc23)C(C)C1 (stereo not drawn) + CCn1c(-c2cc(N3CCN(C)CC3)cnc2C(C)OC)c2c3cc(ccc31)-c1csc(n1)CC(NC(=O)C1CC1C)C(=O)N1CCCC(N1)C(=O)OCC(C)(C)C2,IC50,second compound 0.000949 µM,> 1000 nM
same,IC50,second compound 0.003 µM,> 1000 nM
same,IC50,second compound 0.00949 µM,> 1000 nM
same,IC50,second compound 0.03 µM,> 1000 nM
same,IC50,second compound 0.0949 µM,< 3.16 nM
same,IC50,second compound 0.3 µM,< 3.16 nM
same,"viability, T/C",[1],91.6%
same,"viability, T/C",[2],115%
same,"viability, T/C",[3],99.4%
same,"viability, T/C",[4],94.1%
same,"viability, T/C",[5],110%
same,"viability, T/C",[6],90%
same,"viability, T/C",[7],92.3%
same,"viability, T/C",[8],99.9%
same,"viability, T/C",[9],85.7%
same,"viability, T/C",[10],85%
same,"viability, T/C",[11],98.9%
same,"viability, T/C",[12],85.5%
same,"viability, T/C",[13],94%
same,"viability, T/C",[14],69.2%
same,"viability, T/C",[15],81.2%
same,"viability, T/C",[16],75.3%
same,"viability, T/C",[17],76.4%
same,"viability, T/C",[18],69.1%
same,"viability, T/C",[19],69.5%
same,"viability, T/C",[20],63.7%
same,"viability, T/C",[21],57%
same,"viability, T/C",[22],55.5%
same,"viability, T/C",[23],56.3%
same,"viability, T/C",[24],59%
same,"viability, T/C",[25],52.3%
same,"viability, T/C",[26],47.7%
same,"viability, T/C",[27],42.3%
same,"viability, T/C",[28],42.8%
same,"viability, T/C",[29],47.1%
same,"viability, T/C",[30],45.1%
same,"viability, T/C",[31],39.2%
same,"viability, T/C",[32],34.7%
same,"viability, T/C",[33],42.7%
same,"viability, T/C",[34],38%
same,"viability, T/C",[35],36.8%
same,"viability, T/C",[36],37.1%
CC1(C)CCC(Nc2ncc(C(F)(F)F)c(-c3c[nH]c4c(P(C)(C)=O)c(C#N)ccc34)n2)CN1 (stereo not drawn) + CCn1c(-c2cc(N3CCN(C)CC3)cnc2C(C)OC)c2c3cc(ccc31)-c1csc(n1)CC(NC(=O)C1CC1C)C(=O)N1CCCC(N1)C(=O)OCC(C)(C)C2,IC50,second compound 0.000949 µM,> 300 nM
same,IC50,second compound 0.003 µM,> 300 nM
same,IC50,second compound 0.00949 µM,> 300 nM
same,IC50,second compound 0.03 µM,> 300 nM
same,IC50,second compound 0.0949 µM,< 0.949 nM
same,IC50,second compound 0.3 µM,< 0.949 nM
same,"viability, T/C","second compound 0.000949 µM, first compound 0.000949 µM",98%
same,"viability, T/C","second compound 0.000949 µM, first compound 0.003 µM",101%
same,"viability, T/C","second compound 0.000949 µM, first compound 0.00949 µM",84%
same,"viability, T/C","second compound 0.000949 µM, first compound 0.03 µM",92.2%
same,"viability, T/C","second compound 0.000949 µM, first compound 0.0949 µM",91.8%
same,"viability, T/C","second compound 0.000949 µM, first compound 0.3 µM",77.6%
same,"viability, T/C","second compound 0.003 µM, first compound 0.000949 µM",94.8%
same,"viability, T/C","second compound 0.003 µM, first compound 0.003 µM",85.5%
same,"viability, T/C","second compound 0.003 µM, first compound 0.00949 µM",77.9%
same,"viability, T/C","second compound 0.003 µM, first compound 0.03 µM",77.2%
same,"viability, T/C","second compound 0.003 µM, first compound 0.0949 µM",80.6%
same,"viability, T/C","second compound 0.003 µM, first compound 0.3 µM",69.3%
same,"viability, T/C","second compound 0.00949 µM, first compound 0.000949 µM",71.4%
same,"viability, T/C","second compound 0.00949 µM, first compound 0.003 µM",65.6%
same,"viability, T/C","second compound 0.00949 µM, first compound 0.00949 µM",74.2%
same,"viability, T/C","second compound 0.00949 µM, first compound 0.03 µM",61.7%
same,"viability, T/C","second compound 0.00949 µM, first compound 0.0949 µM",62.8%
same,"viability, T/C","second compound 0.00949 µM, first compound 0.3 µM",63.6%
same,"viability, T/C","second compound 0.03 µM, first compound 0.000949 µM",67.4%
same,"viability, T/C","second compound 0.03 µM, first compound 0.003 µM",60.7%
same,"viability, T/C","second compound 0.03 µM, first compound 0.00949 µM",61%
same,"viability, T/C","second compound 0.03 µM, first compound 0.03 µM",58.5%
same,"viability, T/C","second compound 0.03 µM, first compound 0.0949 µM",55.4%
same,"viability, T/C","second compound 0.03 µM, first compound 0.3 µM",51.4%
same,"viability, T/C","second compound 0.0949 µM, first compound 0.000949 µM",47.5%
same,"viability, T/C","second compound 0.0949 µM, first compound 0.003 µM",44.3%
same,"viability, T/C","second compound 0.0949 µM, first compound 0.00949 µM",47.9%
same,"viability, T/C","second compound 0.0949 µM, first compound 0.03 µM",47.4%
same,"viability, T/C","second compound 0.0949 µM, first compound 0.0949 µM",45.6%
same,"viability, T/C","second compound 0.0949 µM, first compound 0.3 µM",40.3%
same,"viability, T/C","second compound 0.3 µM, first compound 0.000949 µM",34.7%
same,"viability, T/C","second compound 0.3 µM, first compound 0.003 µM",41.8%
same,"viability, T/C","second compound 0.3 µM, first compound 0.00949 µM",31.7%
same,"viability, T/C","second compound 0.3 µM, first compound 0.03 µM",36.4%
same,"viability, T/C","second compound 0.3 µM, first compound 0.0949 µM",36.6%
same,"viability, T/C","second compound 0.3 µM, first compound 0.3 µM",33.4%
C=CC(=O)Nc1cc(Nc2nccc(-c3cn(C)c4ccccc34)n2)c(OC)cc1N(C)CCN(C)C + CCn1c(-c2cccnc2C(C)OC)c2c3cc(ccc31)N1CCOC(CC(NC(=O)C(C(C)C)N(C)C(=O)C3(F)CCN(C(=O)C#CC(C)(C)N(C)C)CC3)C(=O)N3CCCC(N3)C(=O)OCC(C)(C)C2)C1,IC50,second compound 0.000949 µM,554 nM
same,IC50,second compound 0.003 µM,571 nM
same,IC50,second compound 0.00949 µM,453 nM
same,IC50,second compound 0.03 µM,600 nM
same,IC50,second compound 0.0949 µM,525 nM
same,IC50,second compound 0.3 µM,287 nM
same,"viability, T/C",[1],85.2%
same,"viability, T/C",[2],80.6%
same,"viability, T/C",[3],73.5%
same,"viability, T/C",[4],100%
same,"viability, T/C",[5],60.9%
same,"viability, T/C",[6],38.5%
same,"viability, T/C",[7],91.3%
same,"viability, T/C",[8],83.4%
same,"viability, T/C",[9],95.2%
same,"viability, T/C",[10],114%
same,"viability, T/C",[11],59.7%
same,"viability, T/C",[12],40.8%
same,"viability, T/C",[13],94.1%
same,"viability, T/C",[14],70.7%
same,"viability, T/C",[15],87.6%
same,"viability, T/C",[16],82.2%
same,"viability, T/C",[17],56.3%
same,"viability, T/C",[18],36.1%
same,"viability, T/C",[19],80.9%
same,"viability, T/C",[20],88%
same,"viability, T/C",[21],84.5%
same,"viability, T/C",[22],73%
same,"viability, T/C",[23],60.6%
same,"viability, T/C",[24],42.1%
same,"viability, T/C",[25],106%
same,"viability, T/C",[26],83.3%
same,"viability, T/C",[27],84.5%
same,"viability, T/C",[28],80.2%
same,"viability, T/C",[29],67.7%
same,"viability, T/C",[30],31.5%
same,"viability, T/C",[31],74.5%
same,"viability, T/C",[32],74.9%
same,"viability, T/C",[33],85.7%
same,"viability, T/C",[34],52.8%
same,"viability, T/C",[35],54.2%
same,"viability, T/C",[36],32.3%
O=C(c1ccc(F)c(F)c1Nc1ccc(I)cc1F)N1CC(O)([C@@H]2CCCCN2)C1 + CCn1c(-c2cccnc2C(C)OC)c2c3cc(ccc31)N1CCOC(CC(NC(=O)C(C(C)C)N(C)C(=O)C3(F)CCN(C(=O)C#CC(C)(C)N(C)C)CC3)C(=O)N3CCCC(N3)C(=O)OCC(C)(C)C2)C1,IC50,second compound 0.000949 µM,81.2 nM
same,IC50,second compound 0.003 µM,85.5 nM
same,IC50,second compound 0.00949 µM,80.3 nM
same,IC50,second compound 0.03 µM,67 nM
same,IC50,second compound 0.0949 µM,66.4 nM
same,IC50,second compound 0.3 µM,35.4 nM
same,"viability, T/C",[1],71.6%
same,"viability, T/C",[2],85.1%
same,"viability, T/C",[3],71%
same,"viability, T/C",[4],44.4%
same,"viability, T/C",[5],19.4%
same,"viability, T/C",[6],9.33%
same,"viability, T/C",[7],91.1%
same,"viability, T/C",[8],88.8%
same,"viability, T/C",[9],66.6%
same,"viability, T/C",[10],51.4%
same,"viability, T/C",[11],17.6%
same,"viability, T/C",[12],6.84%
same,"viability, T/C",[13],88.6%
same,"viability, T/C",[14],67.5%
same,"viability, T/C",[15],69.9%
same,"viability, T/C",[16],48.1%
same,"viability, T/C",[17],22.3%
same,"viability, T/C",[18],9.42%
same,"viability, T/C",[19],105%
same,"viability, T/C",[20],80.2%
same,"viability, T/C",[21],66.3%
same,"viability, T/C",[22],42.9%
same,"viability, T/C",[23],22.1%
same,"viability, T/C",[24],7.71%
same,"viability, T/C",[25],81.5%
same,"viability, T/C",[26],84%
same,"viability, T/C",[27],60.6%
same,"viability, T/C",[28],43.1%
same,"viability, T/C",[29],20.8%
same,"viability, T/C",[30],7.03%
same,"viability, T/C",[31],73.4%
same,"viability, T/C",[32],65.5%
same,"viability, T/C",[33],47%
same,"viability, T/C",[34],42%
same,"viability, T/C",[35],19.2%
same,"viability, T/C",[36],6.79%
